From PubChem BioAssay AID250 (DTP/NCI, 2004)
Where “and” joins values, the source holds several entries; their conditions need not be identical. Equal values may be shown once. Toxic doses and inconclusive results are not listed.

Test system: BDF1 mice, L1210 leukemia sc, survival T/C
Assay: NCI In Vivo Anticancer Drug Screen. Data for tumor model L1210 Leukemia (subcutaneous) in B6D2F1 (BDF1) mice
Conditions: endpoint: median survival time, higher = longer survival
How it was run: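 Expressed as T/C: measurement in compound-treated, tumor-bearing mice relative to vehicle-treated control mice, based on survival or tumor size.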

**Q.** With `CCCCCCCCCCCCCCCC(=O)OCC1OC(n2ccc(N)nc2=O)C(O)C1O` (stereo not given) as the compound, how does the T/C (dose: 9.38 mg/kg/injection, schedule: Q01DX009 (ip), vehicle: saline) read?
**A.** Its T/C is 211 % of control.

**Q.** What about the T/C (dose: 9.38 mg/kg/injection, schedule: Q01DX009 (sc), vehicle: saline) of the same compound?
**A.** The T/C was 177 % of control.

**Q.** What about the T/C (dose: 18.75 mg/kg/injection, schedule: Q01DX009 (ip), vehicle: saline) of the same compound?
**A.** The T/C was 233 % of control.

**Q.** And the T/C (dose: 18.75 mg/kg/injection, schedule: Q01DX009 (sc), vehicle: saline)?
**A.** Its T/C is 233 % of control.

**Q.** And the T/C (dose: 18.75 mg/kg/injection, schedule: Q04DX003 (sc), vehicle: saline)?
**A.** The T/C was 183 % of control.

**Q.** What about the T/C (dose: 37.5 mg/kg/injection, schedule: Q01DX001 (ip), vehicle: saline) of the same compound?
**A.** The T/C was 155 % of control.

**Q.** And the T/C (dose: 37.5 mg/kg/injection, schedule: Q01DX001 (sc), vehicle: saline)?
**A.** Its T/C is 161 % of control.

**Q.** And the T/C (dose: 37.5 mg/kg/injection, schedule: Q01DX009 (sc), vehicle: saline)?
**A.** Its T/C is 188 % of control.

**Q.** What about the T/C (dose: 37.5 mg/kg/injection, schedule: Q04DX003 (ip), vehicle: saline) of the same compound?
**A.** Its T/C is 216 % of control.

**Q.** And the T/C (dose: 37.5 mg/kg/injection, schedule: Q04DX003 (sc), vehicle: saline)?
**A.** Its T/C is 233 % of control.

**Q.** What about the T/C (dose: 75.0 mg/kg/injection, schedule: Q01DX001 (ip), vehicle: saline) of the same compound?
**A.** Its T/C is 194 % of control.

**Q.** What about the T/C (dose: 75.0 mg/kg/injection, schedule: Q01DX001 (sc), vehicle: saline) of the same compound?
**A.** Its T/C is 95 % of control and 98 % of control and 233 % of control.

**Q.** And the T/C (dose: 75.0 mg/kg/injection, schedule: Q01DX009 (sc), vehicle: saline)?
**A.** The T/C was 150 % of control.

**Q.** And the T/C (dose: 75.0 mg/kg/injection, schedule: Q04DX003 (ip), vehicle: saline)?
**A.** The T/C was 227 % of control.

**Q.** And the T/C (dose: 75.0 mg/kg/injection, schedule: Q04DX003 (sc), vehicle: saline)?
**A.** Its T/C is 244 % of control.

**Q.** What about the T/C (dose: 150.0 mg/kg/injection, schedule: Q01DX001 (ip), vehicle: saline) of the same compound?
**A.** Its T/C is 255 % of control.

**Q.** And the T/C (dose: 150.0 mg/kg/injection, schedule: Q01DX001 (sc), vehicle: saline)?
**A.** The T/C was 95 % of control and 98 % of control and 238 % of control.

**Q.** And the T/C (dose: 150.0 mg/kg/injection, schedule: Q01DX009 (ip), vehicle: saline)?
**A.** Its T/C is 122 % of control.

**Q.** And the T/C (dose: 150.0 mg/kg/injection, schedule: Q04DX003 (ip), vehicle: saline)?
**A.** Its T/C is 177 % of control.

**Q.** And the T/C (dose: 150.0 mg/kg/injection, schedule: Q04DX003 (sc), vehicle: saline)?
**A.** Its T/C is 150 % of control.

**Q.** And the T/C (dose: 600.0 mg/kg/injection, schedule: Q01DX001 (ip), vehicle: saline)?
**A.** Its T/C is 116 % of control.

**Q.** How did the T/C (dose: 0.37 mg/kg/injection, schedule: Q01DX009 (sc), vehicle: other) turn out when `Nc1nc(=S)c2[nH]cnc2[nH]1` was run?
**A.** The T/C was 100 % of control and 102 % of control.

**Q.** What about the T/C (dose: 0.47 mg/kg/injection, schedule: Q01DX Z (sc), vehicle: methylcellulose (MC)) of the same compound?
**A.** Its T/C is 104 % of control and 110 % of control.

**Q.** And the T/C (dose: 0.65 mg/kg/injection, schedule: Q01DX Z (sc), vehicle: methylcellulose (MC))?
**A.** The T/C was 100 % of control.

**Q.** And the T/C (dose: 0.75 mg/kg/injection, schedule: Q01DX009 (sc), vehicle: other)?
**A.** The T/C was 110 % of control and 111 % of control.

**Q.** And the T/C (dose: 0.78 mg/kg/injection, schedule: Q01DX Z (sc), vehicle: methylcellulose (MC))?
**A.** The T/C was 100 % of control and 120 % of control.

**Q.** And the T/C (dose: 1.0 mg/kg/injection, schedule: Q01DX Z (sc), vehicle: other)?
**A.** Its T/C is 100 % of control.

**Q.** What about the T/C (dose: 1.08 mg/kg/injection, schedule: Q01DX Z (sc), vehicle: methylcellulose (MC)) of the same compound?
**A.** Its T/C is 109 % of control.

**Q.** What about the T/C (dose: 1.3 mg/kg/injection, schedule: Q01DX Z (sc), vehicle: methylcellulose (MC)) of the same compound?
**A.** The T/C was 118 % of control.

**Q.** What about the T/C (dose: 1.5 mg/kg/injection, schedule: Q01DX009 (sc), vehicle: other) of the same compound?
**A.** The T/C was 150 % of control.

**Q.** What about the T/C (dose: 1.5 mg/kg/injection, schedule: Q## X009 (sc), vehicle: other) of the same compound?
**A.** Its T/C is 150 % of control.

**Q.** And the T/C (dose: 1.8 mg/kg/injection, schedule: Q01DX Z (oral), vehicle: methylcellulose (MC))?
**A.** The T/C was 109 % of control.

**Q.** And the T/C (dose: 2.0 mg/kg/injection, schedule: Q02DX Z (sc), vehicle: other)?
**A.** Its T/C is 118 % of control.

**Q.** What about the T/C (dose: 2.16 mg/kg/injection, schedule: Q01DX Z (oral), vehicle: methylcellulose (MC)) of the same compound?
**A.** The T/C was 109 % of control.

**Q.** And the T/C (dose: 2.5 mg/kg/injection, schedule: Q02DX009 (sc), vehicle: other)?
**A.** Its T/C is 152 % of control.

**Q.** What about the T/C (dose: 2.5 mg/kg/injection, schedule: Q02DX Z (sc), vehicle: other) of the same compound?
**A.** Its T/C is 155 % of control.

**Q.** What about the T/C (dose: 3.0 mg/kg/injection, schedule: Q01DX009 (sc), vehicle: other) of the same compound?
**A.** Its T/C is 150 % of control and 152 % of control and 156 % of control.

**Q.** And the T/C (dose: 3.0 mg/kg/injection, schedule: Q01DX Z (oral), vehicle: methylcellulose (MC))?
**A.** The T/C was 118 % of control.

**Q.** And the T/C (dose: 3.0 mg/kg/injection, schedule: Q01DX Z (sc), vehicle: methylcellulose (MC))?
**A.** The T/C was 154 % of control.

**Q.** What about the T/C (dose: 3.0 mg/kg/injection, schedule: Q## X009 (sc), vehicle: other) of the same compound?
**A.** Its T/C is 152 % of control.

**Q.** What about the T/C (dose: 3.6 mg/kg/injection, schedule: Q01DX Z (oral), vehicle: methylcellulose (MC)) of the same compound?
**A.** The T/C was 109 % of control.

**Q.** And the T/C (dose: 3.6 mg/kg/injection, schedule: Q01DX Z (sc), vehicle: methylcellulose (MC))?
**A.** The T/C was 150 % of control.

**Q.** What about the T/C (dose: 4.0 mg/kg/injection, schedule: Q02DX Z (sc), vehicle: other) of the same compound?
**A.** The T/C was 159 % of control.

**Q.** And the T/C (dose: 5.0 mg/kg/injection, schedule: Q01DX Z (sc), vehicle: methylcellulose (MC))?
**A.** The T/C was 154 % of control.

**Q.** And the T/C (dose: 5.0 mg/kg/injection, schedule: Q02DX009 (sc), vehicle: other)?
**A.** Its T/C is 165 % of control.

**Q.** What about the T/C (dose: 5.0 mg/kg/injection, schedule: Q02DX Z (sc), vehicle: other) of the same compound?
**A.** Its T/C is 172 % of control.

**Q.** And the T/C (dose: 6.0 mg/kg/injection, schedule: Q01DX009 (sc), vehicle: other)?
**A.** The T/C was 155 % of control and 162 % of control.

**Q.** What about the T/C (dose: 6.0 mg/kg/injection, schedule: Q01DX Z (oral), vehicle: methylcellulose (MC)) of the same compound?
**A.** Its T/C is 113 % of control.

**Q.** What about the T/C (dose: 6.0 mg/kg/injection, schedule: Q01DX Z (sc), vehicle: methylcellulose (MC)) of the same compound?
**A.** The T/C was 150 % of control.

**Q.** And the T/C (dose: 8.0 mg/kg/injection, schedule: Q01DX Z (sc), vehicle: other)?
**A.** Its T/C is 154 % of control.

**Q.** And the T/C (dose: 8.0 mg/kg/injection, schedule: Q02DX Z (sc), vehicle: other)?
**A.** The T/C was 154 % of control.

**Q.** And the T/C (dose: 8.4 mg/kg/injection, schedule: Q01DX Z (oral), vehicle: methylcellulose (MC))?
**A.** Its T/C is 163 % of control.

**Q.** And the T/C (dose: 10.0 mg/kg/injection, schedule: Q01DX Z (oral), vehicle: methylcellulose (MC))?
**A.** The T/C was 118 % of control.

**Q.** What about the T/C (dose: 10.0 mg/kg/injection, schedule: Q01DX Z (sc), vehicle: methylcellulose (MC)) of the same compound?
**A.** The T/C was 150 % of control.

**Q.** And the T/C (dose: 10.0 mg/kg/injection, schedule: Q02DX009 (sc), vehicle: other)?
**A.** Its T/C is 160 % of control.

**Q.** What about the T/C (dose: 10.0 mg/kg/injection, schedule: Q02DX Z (sc), vehicle: other) of the same compound?
**A.** Its T/C is 166 % of control.

**Q.** What about the T/C (dose: 16.0 mg/kg/injection, schedule: Q02DX Z (sc), vehicle: other) of the same compound?
**A.** Its T/C is 150 % of control.

**Q.** And the T/C (dose: 17.0 mg/kg/injection, schedule: Q01DX Z (oral), vehicle: methylcellulose (MC))?
**A.** Its T/C is 118 % of control.

**Q.** What about the T/C (dose: 20.0 mg/kg/injection, schedule: Q02DX Z (sc), vehicle: other) of the same compound?
**A.** Its T/C is 150 % of control.

**Q.** What about the T/C (dose: 28.0 mg/kg/injection, schedule: Q01DX Z (oral), vehicle: methylcellulose (MC)) of the same compound?
**A.** The T/C was 104 % of control.

**Q.** And the T/C (dose: 32.0 mg/kg/injection, schedule: Q02DX Z (sc), vehicle: other)?
**A.** Its T/C is 154 % of control.

**Q.** What about the T/C (dose: 39.0 mg/kg/injection, schedule: Q01DX Z (oral), vehicle: methylcellulose (MC)) of the same compound?
**A.** The T/C was 154 % of control.

**Q.** And the T/C (dose: 40.0 mg/kg/injection, schedule: Q02DX Z (sc), vehicle: other)?
**A.** Its T/C is 155 % of control.

**Q.** And the T/C (dose: 47.0 mg/kg/injection, schedule: Q01DX Z (oral), vehicle: methylcellulose (MC))?
**A.** Its T/C is 109 % of control.

**Q.** With `CC1(C)N=C(N)N=C(N)N1c1cccc(Br)c1` as the compound, how does the T/C (dose: 23.0 mg/kg/injection, schedule: Q01DX Z (sc), vehicle: saline) read?
**A.** The T/C was 105 % of control.

**Q.** What about the T/C (dose: 39.0 mg/kg/injection, schedule: Q01DX Z (sc), vehicle: methylcellulose (MC)) of the same compound?
**A.** Its T/C is 112 % of control.

**Q.** What about the T/C (dose: 39.0 mg/kg/injection, schedule: Q01DX Z (sc), vehicle: saline) of the same compound?
**A.** The T/C was 100 % of control and 122 % of control.

**Q.** What about the T/C (dose: 65.0 mg/kg/injection, schedule: Q01DX Z (sc), vehicle: methylcellulose (MC)) of the same compound?
**A.** Its T/C is 118 % of control.

**Q.** And the T/C (dose: 65.0 mg/kg/injection, schedule: Q01DX Z (sc), vehicle: saline)?
**A.** Its T/C is 110 % of control and 122 % of control.

**Q.** What about the T/C (dose: 108.0 mg/kg/injection, schedule: Q01DX Z (sc), vehicle: saline) of the same compound?
**A.** The T/C was 122 % of control.
